Measurements reported in patent EP0496617B1, “Adenosine kinase inhibitors” (priority 1991, dated 1992).
Read-outs that look alike come from different tables or passages of the source.

Key:
[1] = biological target: purified pig heart adenosine kinase (Sus scrofa, UniProt A0A5G2R0F5); assay: Inhibition of adenosine kinase activity; type: biochemical
Method: Inhibition of enzyme activity was determined using a 0.1 ml assay mixture containing 50 mM Tris-maleate, pH 7.0, 0.1% (w/v) BSA, 1 mM ATP, 1 mM MgCl2, 0.5 µM [U-^14C] adenosine (500 mCi/mmol) and 0.1 µg of purified pig heart adenosine kinase. Different concentrations of the test compounds were incubated in the assay mixture for 20 min at 37°C. From each reaction mixture, 20 µl portions were removed and spotted on 2 cm^2 pieces of Whatman DE81 filter paper. The papers were then washed to remove [^14C] adenosine in 1mM ammonium formate followed by deionized water and finally 95% ethanol. The papers were dried, and [^14C]AMP measured by scintillation counting. Activities were determined from the amount of [^14C]AMP formed. This is a suitable in vitro test method for determining adenosine kinase enzyme inhibition activity.

rat cardiomyocytes = conditions: inhibition of adenosine deaminase alone; cited from earlier work
[2] = test system: human umbillical vein endothelial cells; assay: Inhibition of neutrophil adherence to endothelial cells; type: cell-based; conditions: fMLP-stimulated human neutrophils, 2 hours at 37°C; reversed by adenosine deaminase; Figure 2
Method: The ability of an adenosine kinase inhibitor to affect neutrophil adherence to fibroblasts and endothelial cells was evaluated in a cell culture model.
These incubations were carried out in the presence of fMLP-stimulated human neutrophils isolated from whole blood (1.25 x 10^6/ml) with or without adenosine deaminase (0.125 U/ml). At the end of the incubation, the medium was removed and the monolayers of fibroblasts or endothelial cells and adherent neutrophils were fixed by addition of formaldehyde (3.7%) and, after washing to remove non-adherent neutrophils, adherent neutrophils were stained with Weigart's hematoxylin and counted under a light microscope.

guinea pig ileum = assay: Inhibition of contraction in isolated ileum; conditions: electrically stimulated; reversal by 8SPT and ADA; Figure 3
Method: The ability of adenosine kinase inhibition to affect stimulated contraction of muscle strips from the isolated ileum has been investigated.
Parallel platinum electrodes were used to deliver electrical current at 1 minute intervals at a voltage adequate to induce contraction of 90% of maximal. The adenosine kinase inhibitors, GP-1-515 or GP-1-547 were added to the tissue baths at different concentrations, with or without either the adenosine receptor antagonist, 8-sulphophenyltheophylline (8SPT) or adenosine deaminase (ADA), and the effects on contraction monitored.

[3] = biological target: T1, calf intestinal mucosa adenosine deaminase (Bos taurus, UniProt P56658); assay: Inhibition of adenosine deaminase activity; type: biochemical; conditions: 10 min at 37°C
T1 construct: 0.002 units of calf intestinal mucosa adenosine deaminase; from tissue; host or cells: calf intestinal mucosa
T1 sequence (P56658 1-363): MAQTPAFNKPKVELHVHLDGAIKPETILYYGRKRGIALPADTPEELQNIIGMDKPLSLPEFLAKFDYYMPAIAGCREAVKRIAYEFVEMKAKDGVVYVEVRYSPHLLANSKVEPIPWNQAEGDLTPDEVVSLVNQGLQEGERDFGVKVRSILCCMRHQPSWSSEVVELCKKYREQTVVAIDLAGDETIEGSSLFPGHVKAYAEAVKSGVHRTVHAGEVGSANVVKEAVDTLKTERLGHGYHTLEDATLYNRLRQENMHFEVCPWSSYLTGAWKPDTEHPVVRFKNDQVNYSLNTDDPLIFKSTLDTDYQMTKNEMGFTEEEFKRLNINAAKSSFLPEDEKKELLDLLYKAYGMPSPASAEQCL
Method: Different concentrations of the test compounds were incubated in the assay mixture for 10 min at 37°C. The reaction was monitored continuously for oxidation of NADH from the change in absorbance at 340nm.

adenosine kinase = adenosine kinase (Bos taurus, UniProt A0AAA9TET8); assay: Adenosine kinase inhibition in intact cells; type: cell-based
Chain of adenosine kinase (A0AAA9TET8 1-345): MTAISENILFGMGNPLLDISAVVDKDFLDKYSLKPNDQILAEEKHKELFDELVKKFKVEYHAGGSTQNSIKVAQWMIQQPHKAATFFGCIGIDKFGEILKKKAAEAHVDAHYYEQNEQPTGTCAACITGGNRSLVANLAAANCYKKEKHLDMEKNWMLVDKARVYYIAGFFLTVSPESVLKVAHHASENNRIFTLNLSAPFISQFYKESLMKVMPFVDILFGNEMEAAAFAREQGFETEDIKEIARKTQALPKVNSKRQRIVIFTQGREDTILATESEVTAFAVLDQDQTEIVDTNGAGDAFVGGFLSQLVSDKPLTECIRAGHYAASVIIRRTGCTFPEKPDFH
Method: Inhibition of adenosine kinase in intact cells was determined from the amount of incorporation of radioisotope from adenosine into the adenylates (AMP, ADP and ATP) in the presence of adenosine deaminase inhibition. Capillary endothelial cells from bovine heart were incubated for 60 min. With 20 µM 2'-deoxycoformycin, a potent adenosine deaminase inhibitor. Different concentrations of the test compounds were then added to the cells and incubated for 15 min. after which 5 µM [^3H]adenosine was added and the cells incubated for a further 15 min. The media was then discarded and the cells were treated with 50 µl 0.4 M perchloric acid, centrifuged and the supernatants neutralized with 100 µl alanine: freon (1:4). Radiosotope-labelled adenylates were separated by TLC on PEI cellulose plates developed in methanol:water (1:1) and incorporation of ^3H determined by scintillation counting.

[4] = test system: platelet-induced coronary thrombosis; assay: Canine model of platelet-induced coronary thrombosis (Folts, cyclic flow reductions); type: in vivo
Method: GP-1-515 was tested in a canine model of platelet-induced coronary thrombosis (Folts, J., Circulation, 1991, 83[Suppl. IV]:IV-3-IV-14). In this model, platelets cyclically aggregate and embolize causing cyclic flow reductions (CFRs) that are quantitated by the frequency and the change in coronary blood flow from low point to peak with each cycle. […] TABLE C

Anesthetized male dogs = assay: Preclinical model of stable angina (pacing-induced ischemia); type: in vivo
Method: GP-1-515, was evaluated for its ability to prevent cumulative cardiac dysfunction associated with repeated episodes of pacing-induced ischemia.
Anesthetized male dogs were instrumented to measure regional myocardial wall thickening during right atrial pacing (Young & Mullane, Am. J. Physio., 1991, 261:1570-1577). Animals were subjected to six repeated episodes of pacing. A continuous IV infusion of […] of GP-1-515 or saline (control) -was administered post pace #1. […] TABLE B

[5] = test system: Isolated guinea pig hearts; assay: Functional recovery in isolated hearts after low flow ischemia (Langendorff); conditions: Conc. 0.3 ( M) in perfusion buffer; for Functional Recovery (% preischemic LVDP): 45 minutes low flow ischemia, 30 minutes reperfusion
Method: The ability of a number of adenosine kinase inhibitors to improve the recovery of post-ischemic function was examined in an isolated guinea pig heart model.
Isolated guinea pig hearts were cannulated via the ascending aorta and attached to a perfusion apparatus according to the method of Langendorff. The hearts were perfused at a constant pressure of 60 cm of H2O with a modified Krebs-Hanseleit buffer (pH 7.4) at 37°C. Left ventricular developed pressures (LVDP) were monitored continuously using a latex balloon attached to a pressure transducer. Coronary flows were measured gravimetrically by timed collection of pulmonary effluent. Following equilibration of the hearts for a period of 30 minutes, the hearts were subjected to 45 minutes of low flow ischemia, by reducing the perfusion pressure to 10 cm of H2O, and then reperfused for 30 minutes by restoring the pressure to its. original level (60 cm of H2O). The adenosine kinase inhibitors GP-1-238, GP-1-515 and GP1-547 were added to the perfusion buffer at the final concentrations specified. […] TABLE A

A1 receptor = biological target: T2, A1 receptor (Homo sapiens, UniProt P30542); assay: A1 receptor binding affinity ([3H]CHA, neuronal membrane); conditions: 1 nM [3H]CHA, 60 min at 37°C
T2 construct: 1 nM [^3H]CHA and 0.5 mg of neuronal membrane; from tissue
T2 sequence (P30542 1-326): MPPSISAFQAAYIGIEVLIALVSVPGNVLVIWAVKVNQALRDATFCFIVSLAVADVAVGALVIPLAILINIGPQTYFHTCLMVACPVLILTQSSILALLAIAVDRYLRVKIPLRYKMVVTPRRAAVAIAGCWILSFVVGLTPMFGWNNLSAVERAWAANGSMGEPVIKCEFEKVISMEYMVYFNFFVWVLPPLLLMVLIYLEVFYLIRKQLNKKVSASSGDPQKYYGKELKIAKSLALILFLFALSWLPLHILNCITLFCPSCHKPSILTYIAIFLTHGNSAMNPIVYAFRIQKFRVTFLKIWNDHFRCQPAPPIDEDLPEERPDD
Source text: The reaction was stopped and unbound [^3H]CHA removed by rapid filtration through Whatman GF/B filters. The filter papers were then solubilized and bound [^3H]CHA determined by scintillation counting.

[6] = in human blood; cited from earlier work
[7] = read-out: IC50 in the adenosine kinase inhibition assay

Chain of purified pig heart adenosine kinase (A0A5G2R0F5 1-362): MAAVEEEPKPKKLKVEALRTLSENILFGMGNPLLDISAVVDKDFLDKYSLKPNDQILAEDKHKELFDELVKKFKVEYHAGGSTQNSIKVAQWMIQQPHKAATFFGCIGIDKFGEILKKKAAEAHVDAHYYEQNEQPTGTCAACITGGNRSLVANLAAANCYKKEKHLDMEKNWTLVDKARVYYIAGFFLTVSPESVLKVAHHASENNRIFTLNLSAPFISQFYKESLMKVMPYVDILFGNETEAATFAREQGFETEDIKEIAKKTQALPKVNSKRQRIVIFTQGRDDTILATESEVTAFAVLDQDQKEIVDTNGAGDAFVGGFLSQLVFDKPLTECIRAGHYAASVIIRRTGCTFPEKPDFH

In the case of NC[C@H]1O[C@@H](n2cc(Br)c3c(Cl)ncnc32)[C@H](O)[C@@H]1O [GP-1-608, 7-(5-Amino-5-deoxy-1-β-D-ribofuranosyl)-5-bromo-4-chloropyrrolo [2,3-d]pyrimidine], the IC50 [1, 7] is reported as < 0.01 µM.

For OC[C@H]1O[C@@H](n2cnc3c2N=CNC[C@H]3O)C[C@@H]1O [2'-deoxycoformycin], the “adenosine release from the cells” value (rat cardiomyocytes) is listed as “no effect on adenosine release”.

With CNc1ncnc2c1ncn2[C@@H]1O[C@H](CN)[C@@H](O)[C@H]1O [GP-1-272] the “neutrophil adhesion to endothelial cells” value [2] was “inhibit neutrophil adhesion to endothelial cells”.

In the case of NC[C@H]1O[C@@H](n2nc(Br)c3c(N)ncnc32)[C@H](O)[C@@H]1O [GP-1-515], the “contraction of longitudinal muscle of the ileum” value (guinea pig ileum) is reported as “Inhibition of contraction”, the IC50 [3] is reported as > 1000 µM and the IC50 (adenosine kinase; Capillary endothelial cells from bovine heart, 20 µM 2'-deoxycoformycin; read-out: IC50 in the adenosine kinase inhibition assay in intact cells) is reported as 0.009 µM. The “(N abolished)/(N total)” value ([4]; 0.03 (dose, unit not given)) was 1/8, the “CFR (D flow)” value ([4]; 0.03 (dose, unit not given)) was 10.1 ± 2.6 (n=7) and the “CFR (freq.)” value ([4]; 0.03 (dose, unit not given)) was 3.0 ± 0.6 (n=7). For the same compound, the “(N abolished)/(N total)” value ([4]; 0.1 (dose, unit not given)) was 3/8, the “CFR (D flow)” value ([4]; 0.1 (dose, unit not given)) was 11.0 ± 2.1 (n=5) and the “CFR (freq.)” value ([4]; 0.1 (dose, unit not given)) was 3.4 ± 0.8 (n=5). The “(N abolished)/(N total)” value ([4]; 0.3 (dose, unit not given)) was 3/8, the “CFR (D flow)” value ([4]; 0.3 (dose, unit not given)) was 14.1 ± 1.9 (n=5) and the “CFR (freq.)” value ([4]; 0.3 (dose, unit not given)) was 4.2 ± 0.6 (n=5). The “CFRs abolished (animals)” value ([4]; summary) was 3 of 8, the IC50 [1] was < 0.01 µM and the “% of Non-Ischemic Wall Thickening” value (Anesthetized male dogs; Pace # 1 (infusion started post pace #1)) was 39.8 ± 3.2%. The “% of Non-Ischemic Wall Thickening” value (Anesthetized male dogs; Pace # 2, continuous IV infusion of 1 g/kg/min) was 43.6 ± 12.0%, the “% of Non-Ischemic Wall Thickening” value (Anesthetized male dogs; Pace # 3, continuous IV infusion of 1 g/kg/min) was 34.0 ± 19.0% and the “% of Non-Ischemic Wall Thickening” value (Anesthetized male dogs; Pace # 4, continuous IV infusion of 1 g/kg/min) was 50.5 ± 21.3%. The “% of Non-Ischemic Wall Thickening” value (Anesthetized male dogs; Pace # 5, continuous IV infusion of 1 g/kg/min) was 75.6 ± 19.4%, the “% of Non-Ischemic Wall Thickening” value (Anesthetized male dogs; Pace # 6, continuous IV infusion of 1 g/kg/min) was 62.6 ± 17.1% and the “Preischemic Flow” value [5] was 6.5 ± 0.3 mL/min/g. For the same compound, the “Functional Recovery (% preischemic LVDP)” value [5] was 79.0 ± 3.4 % preischemic LVDP and the IC50 (A1 receptor) was > 100 µM.

In the case of [N-]=[N+]=NC[C@H]1O[C@@H](n2nc(-c3ccccc3)c3c(Nc4ccccc4)ncnc32)[C@H](O)[C@@H]1O [GP-1-667], the IC50 [1, 7] is reported as < 0.01 µM.

For Nc1ncnc2c1ncn2[C@@H]1O[C@H](CO)[C@@H](O)[C@H]1O [adenosine], the half life [6] is given as < 1 s.

For NC[C@H]1O[C@@H](n2nc(I)c3c(N)ncnc32)[C@H](O)[C@@H]1O [GP-1-547], the “contraction of longitudinal muscle of the ileum” value (guinea pig ileum) was “Inhibition of contraction”, the “Preischemic Flow” value [5] was 6.2 ± 0.3 mL/min/g and the “Functional Recovery (% preischemic LVDP)” value [5] was 79.0 ± 3.1 % preischemic LVDP.

In the case of OC[C@H]1O[C@@H](n2nc(-c3ccccc3)c3c(Nc4ccccc4)ncnc32)[C@H](O)[C@@H]1O [GP-1-695], the IC50 [1, 7] is reported as < 0.01 µM.

In the case of NC[C@H]1O[C@@H](n2nc(-c3ccccc3)c3c(Nc4ccccc4)ncnc32)[C@H](O)[C@@H]1O [GP-1-704], the IC50 [1, 7] is reported as < 0.01 µM.

With C[C@H]1O[C@@H](n2nc(-c3ccccc3)c3c(Nc4ccccc4)ncnc32)[C@H](O)[C@@H]1O [GP-1-665] the IC50 (adenosine kinase; read-out: IC50 in the adenosine kinase inhibition assay in intact cells; Capillary endothelial cells from bovine heart, 20 µM 2'-deoxycoformycin) was 0.0045 µM and the IC50 [1, 7] was < 0.01 µM.
